Laboratory results from ChEMBL document CHEMBL5604062, “ASAP - ZIKV NS2B-NS3 protease fluorescence dose response” (2024).
“And” between values parts separate entries of the source, which are not always exact repeats. Equal entries are not always repeated.

Target: Nonstructural protein 3 (Zika virus, UniProt A0A024AXB9)
Test: Functional biochemical assay to identify treatments for viral infectious disease that targets Zika NS2B-NS3 protease. Utilizing a direct enzyme activity measurement method, reading the fluorescence intensity is used to characterize the relative potency of inhibitors as IC50.
Set-up: species or system PRVABC59

Nonstructural protein 3, sequence (A0A024AXB9 whole entry): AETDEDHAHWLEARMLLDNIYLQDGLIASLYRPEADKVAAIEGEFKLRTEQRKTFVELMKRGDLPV

Row | SMILES | IC50
1 | O=C(N[C@@H](C(=O)NCc1c[nH]cn1)c1ccc(OCc2ccccc2)cc1)OCc1ccccc1 | > 99.5 µM
2 | CN(C)Cc1cc(CNC(=O)[C@@H](NC(=O)OCc2ccccc2)c2ccc(OCc3ccccc3)cc2)ccc1F | > 99.5 µM
3 | NCc1cccc(NC(=O)[C@H](NC(=O)OCc2ccccc2)c2cccc(-c3ccnc(N)c3)c2)c1 | 48.1 µM
4 | COc1ccc(NS(=O)(=O)c2ccc(Cl)cc2C(=O)O)cc1-n1nnnc1C | > 99.5 µM
5 | C[C@@H](O)c1cccc(N2CCC(c3nc(N)ncc3F)CC2)n1 | > 99.5 µM
6 | O=Cc1ccc(N2CCC(C(=O)NCCC3CCN(Cc4ccccc4)CC3)CC2)cc1 | > 50.2 µM
7 | CCn1c(=O)c(N2CC(S(=O)(=O)N3CCCC3)C2)nc2ccccc21 | > 99.5 µM
8 | CSC1(C(=O)N[C@H](CC(=O)Nc2cccc(CN)c2)c2ccc(OCc3ccccc3)c(Br)c2)CCC1 | 11.8 µM
9 | O=C(O)c1cc2cc(-c3cc(Cl)cc4c3O[C@H](CO)C4)ccc2[nH]1 | > 25 µM
10 | O=Cc1ccc(N2CCC(C(=O)N3CCN(c4ccc([N+](=O)[O-])cc4C(F)(F)F)CC3)CC2)cc1 | > 0.782 µM
11 | Cn1cncc1COc1cccc([C@H](NC(=O)OCc2ccccc2)C(=O)Nc2cccc(CN)c2)c1 | 32.6 µM
12 | NCc1cccc(NC(=O)[C@H](NS(=O)(=O)C2CCCCC2)c2ccc(OCc3ccccc3)cc2)c1 | 64.8 µM
13 | O=C(NCC(F)F)[C@H](Nc1ccc2c(c1)CNC2)c1cccc(Cl)c1 | 0.082 µM and 0.066 µM
14 | O=Cc1ccc(N2CCC(C(=O)NCCN3CCc4ccccc43)CC2)cc1 | 25 µM
15 | O=C1OCc2ccc(NC(=O)c3cc(F)cc4[nH]ncc34)cc21 | > 25 µM
16 | CC[C@H]1CCN(c2nccn(CC)c2=O)C1 | > 99.5 µM
17 | CO[C@]1(C)C(=O)Nc2cc(F)cc(C(=O)Nc3ccc4c(c3)CNC4)c21 | 1.19 µM
18 | Cc1c(C(F)(F)F)n[nH]c1CN1CCC(c2cscn2)CC1 | > 99.5 µM
19 | CNC(=O)c1cc(Cl)c(F)cc1NS(=O)(=O)c1ccc(Oc2ccccc2Cl)cc1 | 37.9 µM
20 | CCn1cc(Cl)nc(N2CC[C@@H](CO)C2)c1=O | > 99.5 µM
21 | NCc1cccc(NC(=O)[C@@H](NC(=O)OCc2ccccc2)c2ccc(Br)c(Cl)c2)c1 | 9.66 µM and 8.77 µM
22 | O=C(Nc1ccc2c(c1)CNC2)c1cc(Br)cc2[nH]c(C3CCOCC3)nc12 | 0.59 µM
23 | COc1ccc(OC)c([C@H]2CCCN2C(=O)Nc2ccc3c(c2)CNC3)c1 | > 25 µM
24 | Cc1cc(CNC(=O)[C@@H](NC(=O)OCc2ccccc2)c2ccc(OCc3ccccc3)cc2)cc(C)n1 | > 99.5 µM
25 | CNC(=O)C[C@H]1CC[C@@H](NC(=O)c2cccc3c2CC(=O)N3)CC1 | > 25 µM

Row | SMILES | IC50
26 | NCc1cccc(NC(=O)[C@@H](NC(=O)OCc2ccccc2)c2ccc(-c3ccc(N)nc3)cc2)c1 | 73.2 µM
27 | O=C(NCc1ccc2c(c1)CNC2)c1cc(Cl)cc2[nH]ncc12 | 12 µM
28 | NCc1cccc(NC(=O)[C@H](NC(=O)C2CCC2)c2ccc(OCc3ccccc3)cc2)c1 | > 99.5 µM
29 | CS(=O)(=O)Nc1cccc(NC(=O)c2cc(Cl)cc(NC(=O)OCc3ccccc3)c2)c1 | > 99.5 µM
30 | NCc1cccc(NC(=O)[C@@H](NS(=O)(=O)c2ccccn2)c2ccc(OCc3ccccc3)cc2)c1 | > 99.5 µM
31 | CN(C)[C@@H]1C[C@H](C(=O)Nc2cccc(CN)c2)CN(C(=O)OCc2ccccc2)C1 | > 99.5 µM
32 | NCc1cccc(NC(=O)[C@@H]2CCC[C@H](OC(F)(F)F)C2)c1 | > 99.5 µM
33 | Cn1cc(-c2ccc([C@@H](NC(=O)OCc3ccccc3)C(=O)Nc3cccc(CN)c3)cc2)cn1 | > 99.5 µM
34 | c1ccc(COC2CCN(Cc3c[nH]c4ccccc34)CC2)cc1 | > 99.5 µM
35 | Cc1c(C(=O)O)sc2ncc(Cc3c[nH]c4ccc(Cl)cc34)cc12 | 97.2 µM
36 | CCn1c(=O)c(N2CC[C@]3(CCCN(C)C3)C2)nc2ccccc21 | > 99.5 µM
37 | CNC(=O)c1cc(Cl)ccc1NS(=O)(=O)c1ccc(Oc2ccccc2Cl)cc1 | > 99.5 µM
38 | CN1CC=C(c2cccc([C@@H](NC(=O)OCc3ccccc3)C(=O)Nc3cccc(CN)c3)c2)CC1 | 67.5 µM
39 | O=C(O)c1cc(Cl)ccc1S(=O)(=O)N[C@H]1CCN(Cc2ccccc2)C(=O)C1 | > 99.5 µM
40 | CCn1cc(-c2ccnc(C)c2)nc(N2CC[C@@H](CO)C2)c1=O | > 99.5 µM
41 | CC[C@@H](NCc1c[nH]c2ccccc12)c1cccnc1 | > 99.5 µM
42 | COc1ccc(S(=O)(=O)Nc2cc(F)c(Cl)cc2C(=O)NCC(C)C)cc1 | > 99.5 µM
43 | COc1cc(Br)cc(C(=O)Nc2ccc3c(c2)CNC3)c1 | 0.332 µM
44 | N#Cc1cccc(C[C@H](O)c2cc(Cl)cc(NC(=O)OCc3ccccc3)c2)c1 | > 99.5 µM
45 | CC(C)(C)c1ncc(-c2ccc([C@@H](NC(=O)OCc3ccccc3)C(=O)Nc3cccc(CN)c3)cc2)o1 | 36.3 µM
46 | O=C(Nc1ccc2c(c1)CNC2)c1cc(Br)cc2[nH]c([C@H]3CCOC3)nc12 | 0.265 µM
47 | CN(C)Cc1cccc(C(=O)Nc2cc(Cl)cc(C(=O)NC(C)(C)CO)c2)c1 | > 99.5 µM
48 | COCc1cc(Cl)cc([C@H](Nc2ccc3c(c2)CNC3)C(=O)NCC(F)F)c1 | 0.027 µM and 0.014 µM
49 | CCSc1nnc(SCCn2nc3ccccn3c2=O)s1 | > 99.5 µM
50 | O=S(=O)(Nc1cccc(-c2nnn[nH]2)c1)c1cc(Cl)cc2c1OCC2 | > 99.5 µM

Second part, the compound after the results:

Row | IC50 | SMILES
51 | > 25 µM | C#Cc1ccnc(NC(=O)c2cc(C3CC3)n(C)c2C)c1
52 | > 99.5 µM | O=C(Nc1cc(Cl)cc(C(=O)Nc2ccc(CCN3CCOCC3)cc2)c1)OCc1ccccc1
53 | 61.7 µM | O=C(Nc1ccc2c(c1)CNC2)c1ncc(Br)s1
54 | > 99.5 µM | O=C(Nc1cc(Cl)cc(C(=O)Nc2n[nH]c3c2CNC32CC2)c1)OCc1ccccc1
55 | 2.95 µM | O=C(Nc1ccc2c(c1)CNC2)c1ccc2[nH]cnc2c1
56 | 2.7 µM | NCc1cccc(NC(=O)c2cc(Cl)cc(-n3cccc3)c2)c1
57 | > 99.5 µM | Cc1cc(NC(=O)c2cc(C3CC3)n(C)c2C)ncc1S(N)(=O)=O
58 | > 99.5 µM | c1cncc(-c2cc(CN3CCC(c4cscn4)CC3)n[nH]2)c1
59 | 33.9 µM | c1ccc2c(CN3CCC(c4c[nH]c5ncccc45)CC3)c[nH]c2c1
60 | > 99.5 µM | Clc1ccc2[nH]cc(Cc3cccc(-c4nn[nH]n4)c3)c2c1
61 | 39.4 µM | NCc1cccc(NC(=O)c2cccc(Oc3ccc(Cl)c(Cl)c3)n2)c1
62 | > 99.5 µM | O=C1CCc2cc(NC(=O)c3cc(Cl)cc4[nH]ncc34)ccc2N1
63 | > 99.5 µM | NCc1cccc(NC(=O)c2cc(C3CC3)n3nc(C(F)(F)F)cc3n2)c1
64 | > 99.5 µM | NCc1cccc(NC(=O)c2cc(C3CCCCC3)nc3ccc(F)cc23)c1
65 | 46.7 µM | O=C(O)c1cc(Cl)ccc1NS(=O)(=O)c1ccc(Nc2ccccc2F)nc1
66 | > 25 µM | O=C(Nc1cc(-c2cccnc2)ccn1)c1cc2n(n1)CC1(CC1)C2
67 | 3.52 µM | CC(=O)Nc1cc(Cl)cc(C(=O)Nc2cccc(CN)c2)c1
68 | > 25 µM | COCCN(C)Cc1ccnc(NC(=O)c2cc(C3CC3)n(C)c2C)c1
69 | > 99.5 µM | O=C(O)c1cc(Cl)ccc1NS(=O)(=O)c1ccc(N[C@H]2CCOC2)nc1
70 | > 99.5 µM | CC1=NN(c2ccc(NS(=O)(=O)c3ccc(Cl)cc3C(=O)O)cn2)C(=O)C1
71 | > 99.5 µM | CCc1[nH]c(-c2ccccc2)cc1C(=O)Nc1cccc(-c2nnn[nH]2)c1
72 | > 25 µM | Cc1c(C(=O)Nc2cc(C(=O)N3C[C@@H]4[C@H](O)[C@@H]4C3)ccn2)cc(C2CC2)n1C
73 | > 25 µM | O=C(Nc1cc(-c2cccnc2)ccn1)c1nc(C2CC2)co1
74 | > 99.5 µM | Cc1cc(C(=O)Nc2cccc(CN)c2)n2nc(C(F)(F)F)cc2n1
75 | 32.6 µM | c1cncc(C2CCN(Cc3c[nH]c4ccccc34)CC2)c1
